According to the CheMixHub drug solubility set:

Experiment: xn = mol fraction of the nth substance listed, in the solute-free solvent

CC(C)Oc1ccc2c(=O)c(-c3ccccc3)coc2c1 + CN1CCCC1=O + CCO
solubility (g/100 g solution)
Settings | 278.15 K | 283.15 K | 288.15 K | 293.15 K | 298.15 K | 303.15 K | 308.15 K | 313.15 K | 318.15 K | 323.15 K
x2 = 0.1038 | 1.5 | 1.87 | 2.26 | 2.85 | 3.5 | 4.39 | 5.46 | 6.91 | 8.81 | 10.8
x2 = 0.2359 | 2.85 | 3.39 | 4.07 | 4.91 | 6.03 | 7.33 | 8.92 | 11 | 13.1 | 15.9
x2 = 0.41 | 5.57 | 6.67 | 7.63 | 9.21 | 10.9 | 12.9 | 15.3 | 17.8 | 21 | 24.9
x2 = 0.6471 | 9.68 | 11 | 12.7 | 14.6 | 16.8 | 19.3 | 22.1 | 25.1 | 28.4 | 32.1

N#CC(c1ccc(Cl)cc1)c1c(Cl)cc(-n2ncc(=O)[nH]c2=O)cc1Cl (centres undefined) + CC(C)=O + CCO
solubility (g/100 g solution)
Settings | 283.15 K | 288.15 K | 293.15 K | 298.15 K | 303.15 K | 308.15 K | 313.15 K | 318.15 K | 323.15 K
x2 = 0.1655 | 2.81 | 3.32 | 3.87 | 4.51 | 5.25 | 6.03 | 6.91 | 7.89 | 8.92
x2 = 0.3459 | 4.12 | 4.81 | 5.56 | 6.42 | 7.41 | 8.46 | 9.6 | 10.9 | 12.2
x2 = 0.5434 | 5.39 | 6.26 | 7.2 | 8.24 | 9.47 | 10.8 | 12.2 | 13.7 | 15.2
x2 = 0.7604 | 6.63 | 7.67 | 8.77 | 10 | 11.4 | 13 | 14.6 | 16.3 | 18.1

Cl.NC(C=O)C(O)C(O)C(O)CO (centres undefined) + O + CO
solubility (g/100 g solution)
Settings | 283.15 K | 288.15 K | 293.15 K | 298.15 K | 303.15 K | 308.15 K | 313.15 K | 318.15 K | 323.15 K
x2 = 0.2 | 0.992 | 1.03 | 1.13 | 1.23 | 1.35 | 1.48 | 1.55 | 1.7 | 1.83
x2 = 0.4 | 2.16 | 2.53 | 2.73 | 2.95 | 3.19 | 3.51 | 3.82 | 4.32 | 4.72
x2 = 0.6 | 4.73 | 5.53 | 6 | 6.76 | 7.4 | 8.23 | 9.01 | 10 | 10.9
x2 = 0.8 | 10.2 | 11.5 | 12.8 | 13.9 | 15.2 | 16.7 | 18.1 | 19.7 | 21.3
x2 = 0.9 | 15.2 | 16.6 | 18 | 19.7 | 21 | 22.9 | 24.2 | 25.8 | 27.9

Cc1cc(Cl)cc(C(=O)O)c1N + CC(C)=O + CC#N
solubility (g/100 g solution)
Settings | 278.15 K | 283.15 K | 288.15 K | 293.15 K | 298.15 K | 303.15 K | 308.15 K | 313.15 K | 318.15 K | 323.15 K
x2 = 0.1114 | 1.03 | 1.1 | 1.25 | 1.42 | 1.6 | 1.82 | 2.12 | 2.5 | 2.98 | 3.61
x2 = 0.2335 | 1.51 | 1.63 | 1.87 | 2.13 | 2.41 | 2.74 | 3.2 | 3.76 | 4.46 | 5.3
x2 = 0.3677 | 1.98 | 2.16 | 2.48 | 2.84 | 3.21 | 3.65 | 4.26 | 5 | 5.89 | 6.95
x2 = 0.516 | 2.46 | 2.68 | 3.09 | 3.54 | 4 | 4.55 | 5.3 | 6.22 | 7.3 | 8.55
x2 = 0.6807 | 2.92 | 3.19 | 3.69 | 4.24 | 4.78 | 5.44 | 6.32 | 7.42 | 8.69 | 10.1
x2 = 0.8648 | 3.39 | 3.71 | 4.29 | 4.92 | 5.55 | 6.31 | 7.34 | 8.61 | 10.1 | 11.7

O=C(O)c1ccc(-n2nc(-c3ccccc3O)nc2-c2ccccc2O)cc1 + CCO + CC#N
298.15 K
Settings | solubility (g/100 g solution)
x2 = 0.09009 | 4.09
x2 = 0.1822 | 7.7
x2 = 0.2764 | 11.7
x2 = 0.3727 | 15.7
x2 = 0.4712 | 18.8
x2 = 0.572 | 21.2
x2 = 0.6752 | 21.4
x2 = 0.7809 | 19.3
x2 = 0.8891 | 15.9

CCc1cccc2c3c([nH]c12)C(CC)(CC(=O)O)OCC3 (centres undefined) + CCCCOC(C)=O + CCCCCC
solubility (g/100 g solution)
Settings | 278.15 K | 283.15 K | 288.15 K | 293.15 K | 298.15 K | 303.15 K | 308.15 K | 313.15 K | 318.15 K | 323.15 K
x2 = 0.1568 | 0.52 | 0.667 | 0.805 | 0.936 | 1.08 | 1.23 | 1.41 | 1.62 | 1.86 | 2.07
x2 = 0.3309 | 3.1 | 3.48 | 3.93 | 4.43 | 5 | 5.64 | 6.39 | 7.21 | 8.15 | 9.12
x2 = 0.5268 | 4.5 | 5.13 | 5.79 | 6.5 | 7.27 | 8.13 | 9.13 | 10.2 | 11.5 | 12.9
x2 = 0.7478 | 7.51 | 8.4 | 9.35 | 10.4 | 11.5 | 12.8 | 14.2 | 15.8 | 17.5 | 19.4

Cc1cc(Cl)cc(C(=O)O)c1N + CC(C)=O + CO
solubility (g/100 g solution)
Settings | 278.15 K | 283.15 K | 288.15 K | 293.15 K | 298.15 K | 303.15 K | 308.15 K | 313.15 K | 318.15 K | 323.15 K
x2 = 0.0885 | 1.19 | 1.38 | 1.68 | 1.99 | 2.4 | 2.86 | 3.39 | 4.09 | 4.87 | 5.8
x2 = 0.1908 | 1.63 | 1.86 | 2.21 | 2.59 | 3.05 | 3.58 | 4.22 | 5.04 | 5.96 | 7.04
x2 = 0.3105 | 2.08 | 2.33 | 2.75 | 3.19 | 3.7 | 4.29 | 5.04 | 5.98 | 7.04 | 8.27
x2 = 0.4522 | 2.52 | 2.8 | 3.28 | 3.79 | 4.35 | 5.01 | 5.85 | 6.92 | 8.12 | 9.48
x2 = 0.6228 | 2.96 | 3.27 | 3.81 | 4.39 | 4.99 | 5.71 | 6.66 | 7.84 | 9.18 | 10.7
x2 = 0.832 | 3.4 | 3.74 | 4.34 | 4.98 | 5.64 | 6.42 | 7.47 | 8.77 | 10.2 | 11.9

O=CC(O)C(O)C(O)CO (centres undefined) + CC(C)O + CCCCCC
solubility (g/100 g solution)
Settings | x2 = 0.1 | x2 = 0.2 | x2 = 0.3 | x2 = 0.4 | x2 = 0.5 | x2 = 0.6 | x2 = 0.7 | x2 = 0.8 | x2 = 0.9
283.15 K | 0.0751 | 0.111 | 0.142 | 0.164 | 0.188 | 0.271 | 0.405 | 0.615 | 0.82
293.15 K | 0.0952 | 0.126 | 0.198 | 0.238 | 0.307 | 0.453 | 0.646 | 0.819 | 1.12
303.15 K | 0.112 | 0.13 | 0.233 | 0.362 | 0.471 | 0.665 | 1 | 1.4 | 2.1
313.15 K | 0.129 | 0.16 | 0.277 | 0.518 | 0.76 | 1.08 | 1.61 | 2.29 | 3.38
323.15 K | 0.14 | 0.247 | 0.388 | 0.792 | 1.16 | 1.83 | 2.77 | 4 | 6.03

O=C(O)c1ccc(-n2nc(-c3ccccc3O)nc2-c2ccccc2O)cc1 + CC#N + O
298.15 K
Settings | solubility (g/100 g solution)
x2 = 0.04651 | 0.126
x2 = 0.0989 | 0.161
x2 = 0.1583 | 0.316
x2 = 0.2264 | 0.736
x2 = 0.3051 | 1.86
x2 = 0.397 | 3.21
x2 = 0.506 | 4.64
x2 = 0.6372 | 5.9
x2 = 0.798 | 5.08
